Data published in PubChem BioAssay AID1963960 (Molecular Pharmacology Branch, DTP, NCI, 2024).

Tested on: MDA-MB-468 spheroids with HUVEC/MSC, viability
Test: Anticancer human tumor MDA-MB-468 cell line growth inhibition [PI3K];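 further: spheroids exposed to agents for seven days before readout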;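 on viability, T/C: 100% = DMSO vehicle control viability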
Details: for viability, T/C: stronger effect = lower value
Text: Combinatorial screen of targeted agents with the PI3K inhibitors inavolisib, alpelisib, duvelisib, and copanlisib in multi-cell type tumor spheroids
A high-throughput screen of multi-cell type tumor spheroids was designed to identify active combinations of targeted small molecules and PI3K pathway inhibitors. Complex spheroids include a stromal component modeled by human endothelial cells (HUVEC) and fibroblasts modeled by human mesenchymal stem cells (MSCs). The concentration ranges selected for each drug and investigational agent were based upon clinically achievable concentrations if the clinical Cmax of the agent was known.
Compounds. The drugs and investigational agents: inavolisib (NSC800729), alpelisib (NSC765974), duvelisib (NSC772469), copanlisib (NSC816437), ipatasertib (NSC767898), afuresertib (NSC778305), talazoparib (NSC767125), sapanisertib (NSC764658), selumetinib (NSC741078), tovorafenib (DAY101, NSC766906), vemurafenib (NSC761431), ravoxertinib (NSC781343), sotorasib (NSC818433), MRTX1133 (NSC 836407), abemaciclib (NSC 768073), palbociclib (NSC758247), venetoclax (NSC 766270), SY5609 (NSC837396), enzalutamide (NSC755605), and darolutamide (NSC825331), were obtained from the National Cancer Institute (NCI) Developmental Therapeutics Program Chemical Repository. The FDA-approved anticancer drug set is available from the NCI Developmental Therapeutics Program. […] The stock solutions were prepared in dimethyl sulfoxide (DMSO, Sigma-Aldrich, St. Louis, MO, cat. D2650) at 800-fold the tested concentration and stored at -70 degrees C prior to their use. All drugs and investigational agents were tested over a range starting from a high concentration at or near the clinical Cmax and decreasing in half-log increments. If the clinical Cmax for an agent had not been determined, the highest concentration tested was 10 microM.
Cell Culture. All cells were maintained in an incubator at 37 degrees C and 5% CO2 with 95% humidity. The PDC lines were cultured according to standard operating procedures established by the NCI PDMR (https://pdmr.cancer.gov/sops/default.htm). All PDCs were thawed and cultured in Matrigel-coated flasks prepared with a working solution of 1X Ham's F-12 nutrient mix, without supplementation (Invitrogen, Waltham, MA, cat. 11765054), 100 U/mL penicillin-streptomycin (Invitrogen, cat. 15140122), and 2.5% Matrigel (Corning Inc., Corning, NY, cat. 354248) for the first three passages. The 354836-022-R-J1-PDC, 475296-252-R-J1-PDC, and 997726-040-R-J2-PDC lines were cultured in 6A media, which includes advanced DMEM/F-12 (Thermo Fisher Scientific, cat. 12634028), 10 mM HEPES (Thermo Fisher Scientific, cat. 15630080), 1X GlutaMAX supplement (Thermo Fisher Scientific, cat. 35050061), 0.1 mg/mL primocin (InvivoGen, San Diego, CA, cat. ant-pm-2), 10% defined fetal bovine serum, heat inactivated (HyClone Laboratories Inc., Logan, UT, cat. SH30070.03HI), 50% L-WRN conditioned media (ATCC, cat. CRL-3276), 1.25 mM N-Acetyl-L-cysteine (Sigma-Aldrich, cat. A9165), 10 mM nicotinamide (Sigma-Aldrich, cat. N0636), 1X B-27 supplement (Thermo Fisher Scientific, cat. 17504044), 1X N-2 supplement (Thermo Fisher Scientific, cat. 17502048), and 10 microM Y-27632 dihydrochloride (Tocris Bioscience, Bristol, United Kingdom, cat. 1254). The 624824-186-R-J2-PDC line was cultured in 6C/Colon 1B media, which includes all 6A media components plus 50 ng/mL human EGF recombinant protein (Thermo Fisher Scientific, cat. PHG0311). […]

[1] = curve of first compound, second compound 0.0316 µM
[2] = curve of first compound, second compound 0.1 µM
[3] = curve of first compound, second compound 0.316 µM
[4] = curve of first compound, second compound 1 µM
[5] = curve of first compound, second compound 3.16 µM
[6] = curve of first compound, second compound 10 µM
[7] = second compound 0.0316 µM, first compound 0.0316 µM
[8] = second compound 0.0316 µM, first compound 0.1 µM
[9] = second compound 0.1 µM, first compound 0.0316 µM
[10] = second compound 0.1 µM, first compound 0.1 µM
[11] = second compound 0.316 µM, first compound 0.0316 µM
[12] = second compound 0.316 µM, first compound 0.1 µM
[13] = second compound 1 µM, first compound 0.0316 µM
[14] = second compound 1 µM, first compound 0.1 µM
[15] = second compound 3.16 µM, first compound 0.0316 µM
[16] = second compound 3.16 µM, first compound 0.1 µM
[17] = second compound 10 µM, first compound 0.0316 µM
[18] = second compound 10 µM, first compound 0.1 µM

`CC(C)NCC(C(=O)N1CCN(c2ncnc3c2C(C)CC3O)CC1)c1ccc(Cl)cc1` (stereo unspecified) + CC(Nc1ncnc2nc[nH]c12)c1cc2cccc(Cl)c2c(=O)n1-c1ccccc1 gave an IC50 [1] of 1.17 µM, an IC50 [2] of 1.01 µM and an IC50 [3] of 1.22 µM. For the same compound, the IC50 [4] was 0.654 µM, the IC50 [5] was 0.26 µM and the IC50 [6] was < 0.0316 µM. The viability, T/C [7] was 97.6%, the viability, T/C [8] was 86.2% and the viability, T/C (second compound 0.0316 µM, first compound 0.316 µM) was 76.4%. It also gave a viability, T/C (second compound 0.0316 µM, first compound 1 µM) of 50.4%, a viability, T/C (second compound 0.0316 µM, first compound 3.16 µM) of 36% and a viability, T/C (second compound 0.0316 µM, first compound 10 µM) of 25.7%. The viability, T/C [9] was 78.1%, the viability, T/C [10] was 87.9% and the viability, T/C (second compound 0.1 µM, first compound 0.316 µM) was 77.5%. The viability, T/C (second compound 0.1 µM, first compound 1 µM) was 48.3%, the viability, T/C (second compound 0.1 µM, first compound 3.16 µM) was 38.5% and the viability, T/C (second compound 0.1 µM, first compound 10 µM) was 25.8%. For the same compound, the viability, T/C [11] was 73.1%, the viability, T/C [12] was 80.2% and the viability, T/C (second compound 0.316 µM, first compound 0.316 µM) was 76.9%. The viability, T/C (second compound 0.316 µM, first compound 1 µM) was 51.2%, the viability, T/C (second compound 0.316 µM, first compound 3.16 µM) was 38.5% and the viability, T/C (second compound 0.316 µM, first compound 10 µM) was 27.4%. It also gave a viability, T/C [13] of 72.2%, a viability, T/C [14] of 64.9% and a viability, T/C (second compound 1 µM, first compound 0.316 µM) of 59.1%. The viability, T/C (second compound 1 µM, first compound 1 µM) was 46.4%, the viability, T/C (second compound 1 µM, first compound 3.16 µM) was 29.9% and the viability, T/C (second compound 1 µM, first compound 10 µM) was 27%. For the same compound, the viability, T/C [15] was 57.5%, the viability, T/C [16] was 57.7% and the viability, T/C (second compound 3.16 µM, first compound 0.316 µM) was 47%. For the same compound, the viability, T/C (second compound 3.16 µM, first compound 1 µM) was 40.8%, the viability, T/C (second compound 3.16 µM, first compound 3.16 µM) was 32.6% and the viability, T/C (second compound 3.16 µM, first compound 10 µM) was 25.6%. For the same compound, the viability, T/C [17] was 46.4%, the viability, T/C [18] was 41.2% and the viability, T/C (second compound 10 µM, first compound 0.316 µM) was 42.2%. It also gave a viability, T/C (second compound 10 µM, first compound 1 µM) of 34.7%, a viability, T/C (second compound 10 µM, first compound 3.16 µM) of 26.4% and a viability, T/C (second compound 10 µM, first compound 10 µM) of 21.4%.
`CC(C)n1nc(-c2ccc3oc(N)nc3c2)c2c(N)ncnc21` + CC(Nc1ncnc2nc[nH]c12)c1cc2cccc(Cl)c2c(=O)n1-c1ccccc1 was tested, and the IC50 [1] was 0.0419 µM, the IC50 [2] was 0.0345 µM and the IC50 [3] was 0.0379 µM. The IC50 [4] was 0.024 µM, the IC50 [5] was 0.0113 µM and the IC50 [6] was < 0.000316 µM. The viability, T/C (second compound 0.0316 µM, first compound 0.000316 µM) was 81.5%, the viability, T/C (second compound 0.0316 µM, first compound 0.001 µM) was 81.4% and the viability, T/C (second compound 0.0316 µM, first compound 0.00316 µM) was 96.1%. It also gave a viability, T/C (second compound 0.0316 µM, first compound 0.01 µM) of 82.2%, a viability, T/C [7] of 60% and a viability, T/C [8] of 19.5%. It also gave a viability, T/C (second compound 0.1 µM, first compound 0.000316 µM) of 77.6%, a viability, T/C (second compound 0.1 µM, first compound 0.001 µM) of 91.5% and a viability, T/C (second compound 0.1 µM, first compound 0.00316 µM) of 77.9%. For the same compound, the viability, T/C (second compound 0.1 µM, first compound 0.01 µM) was 66%, the viability, T/C [9] was 54.4% and the viability, T/C [10] was 19.8%. For the same compound, the viability, T/C (second compound 0.316 µM, first compound 0.000316 µM) was 91.6%, the viability, T/C (second compound 0.316 µM, first compound 0.001 µM) was 59.7% and the viability, T/C (second compound 0.316 µM, first compound 0.00316 µM) was 77.4%. It also gave a viability, T/C (second compound 0.316 µM, first compound 0.01 µM) of 73.8%, a viability, T/C [11] of 55.2% and a viability, T/C [12] of 17.4%. It also gave a viability, T/C (second compound 1 µM, first compound 0.000316 µM) of 69.3%, a viability, T/C (second compound 1 µM, first compound 0.001 µM) of 68.4% and a viability, T/C (second compound 1 µM, first compound 0.00316 µM) of 64.1%. For the same compound, the viability, T/C (second compound 1 µM, first compound 0.01 µM) was 57%, the viability, T/C [13] was 49.6% and the viability, T/C [14] was 15.8%. It also gave a viability, T/C (second compound 3.16 µM, first compound 0.000316 µM) of 50.2%, a viability, T/C (second compound 3.16 µM, first compound 0.001 µM) of 54.8% and a viability, T/C (second compound 3.16 µM, first compound 0.00316 µM) of 57.4%. For the same compound, the viability, T/C (second compound 3.16 µM, first compound 0.01 µM) was 50.9%, the viability, T/C [15] was 36.2% and the viability, T/C [16] was 13.2%. For the same compound, the viability, T/C (second compound 10 µM, first compound 0.000316 µM) was 41.5%, the viability, T/C (second compound 10 µM, first compound 0.001 µM) was 39.7% and the viability, T/C (second compound 10 µM, first compound 0.00316 µM) was 38.8%. It also gave a viability, T/C (second compound 10 µM, first compound 0.01 µM) of 40%, a viability, T/C [17] of 26.4% and a viability, T/C [18] of 9.66%.
With `CC(Nc1ncnc2nc[nH]c12)c1cc2cccc(Cl)c2c(=O)n1-c1ccccc1` (stereo unspecified) the viability, T/C (compound 0.0316 µM) was 94% [middle of 8 runs], the viability, T/C (compound 0.1 µM) was 93.1% [middle of 8 runs] and the viability, T/C (compound 0.316 µM) was 81% [middle of 8 runs]. The viability, T/C (compound 1 µM) was 71.2% [middle of 8 runs], the viability, T/C (compound 3.16 µM) was 55.5% [middle of 8 runs] and the viability, T/C (compound 10 µM) was 40.7% [middle of 8 runs]. The IC50 (compound alone, run of 05/09/2023) was 4.95 µM [middle of 8 runs].
